From the supplement of paper PMC10627819

Columns and labels:
[1] = tested on: B. subtilis 168; experiment: fitness (endpoint OD595 vs no drug) (fraction); higher = more growth
Summary of the method: (§1)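 Fitness was defined as the optical density at the transition into stationary phase relative to the robust mean of no-drug control wells. Values were capped at 1. Cultures were started at OD595 0.01 in 384-well plates (30 µl, or 55 µl for S. pneumoniae) in TSB, LB Lennox or CY at 37 °C. OD595 was recorded every 30 min over 14 h, with the first reading subtracted as background.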

[2] = tested on: S. aureus DSM 20231; experiment: as above
Summary of the method: as §1

[3] = tested on: S. aureus Newman; experiment: as above
Summary of the method: as §1

[4] = tested on: S. pneumoniae D39V; experiment: as above
Summary of the method: as §1

[5] = tested on: B. subtilis 168; experiment: Bliss interaction score (quartile over a dose matrix) (fitness difference); higher = more antagonism (negative = synergy)
Summary of the method: (§2)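 Growth was read as OD595 when cultures entered stationary phase, and each value was divided by the plate's robust no-drug mean and capped at 1. This normalised ratio is the fitness value, and fitness for each single drug came from the combination data. The Bliss score subtracts the expected fitness, taken as the product, from the observed fitness and is given as quartiles across technical, biological and donor/recipient replicates.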

[6] = tested on: S. aureus DSM 20231; experiment: as above
Summary of the method: as §2

[7] = tested on: S. aureus Newman; experiment: as above
Summary of the method: as §2

[8] = tested on: S. pneumoniae D39V; experiment: as above
Summary of the method: as §2
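For Bliss interaction score (quartile over a dose matrix) in this document: first quartile when negative (synergy) and third quartile when positive (antagonism).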

O=C(O[C@@H]1Cc2c(O)cc(O)cc2O[C@@H]1c1cc(O)c(O)c(O)c1)c1cc(O)c(O)c(O)c1 [EGCG] + CC1=C\[C@@H](O)CC(=O)Cc2nc(co2)C(=O)N2CCC=C2C(=O)O[C@H](C(C)C)[C@H](C)/C=C/C(=O)NC\C=C\1 [Virginiamycin M1]
fitness
Settings | partner 0.0625 µg/mL | partner 0.125 µg/mL | partner 0.25 µg/mL | partner 0.5 µg/mL | partner 1 µg/mL | partner 2 µg/mL
[1], first compound 6.25 µg/mL | 0.973 | 0.974 | 0.997 | – | – | –
[2], first compound 12.5 µg/mL | 0.86 | 0.931 | 0.686 | – | – | –
[2], first compound 25 µg/mL | 0.859 | ≥ 1 | 0.904 | – | – | –
[2], first compound 50 µg/mL | 0.76 | 0.986 | 0.82 | – | – | –
[3], first compound 12.5 µg/mL | 0.811 | 0.858 | 0.817 | – | – | –
[3], first compound 25 µg/mL | 0.868 | 0.897 | 0.865 | – | – | –
[3], first compound 50 µg/mL | 0.925 | 0.96 | 0.878 | – | – | –
[4], first compound 12.5 µg/mL | – | – | – | 0.973 | 0.958 | 0.921
[4], first compound 25 µg/mL | – | – | – | ≥ 1 | ≥ 1 | 0.89
[4], first compound 50 µg/mL | – | – | – | 0.965 | 0.946 | 0.889

fitness, one replicate
Settings | first compound 12.5 µg/mL | first compound 25 µg/mL | first compound 50 µg/mL
[2], partner 0.5 µg/mL | 0.807 | 0.715 | 0.694
[2], partner 1 µg/mL | 0.67 | 0.65 | 0.543
[3], partner 0.5 µg/mL | 0.678 | 0.728 | 0.682
[3], partner 1 µg/mL | 0.702 | 0.715 | 0.677
[3], partner 2 µg/mL | 0.671 | 0.624 | 0.622
[4], partner 0.15 µg/mL | 0.891 | 0.872 | 0.883
[4], partner 0.3 µg/mL | 0.823 | 0.847 | 0.842

Settings | Bliss interaction score
[5] | 0.0619
[6] | 0.119
[7] | 0.0651
[8] | -0.092

O=C(O[C@@H]1Cc2c(O)cc(O)cc2O[C@@H]1c1cc(O)c(O)c(O)c1)c1cc(O)c(O)c(O)c1 [EGCG] + CCN(CC)CCOC(=O)c1ccc(N)cc1 [Procaine]
fitness
Settings | partner 85.5 µg/mL | partner 171 µg/mL | partner 342 µg/mL
[1], first compound 6.25 µg/mL | 0.913 | 0.882 | 0.88
[1], first compound 12.5 µg/mL | 0.715 | 0.75 | 0.599
[1], first compound 25 µg/mL | – | – | 0.227
[2], first compound 12.5 µg/mL | 0.821 | 0.821 | 0.833
[2], first compound 25 µg/mL | 0.809 | 0.858 | 0.886
[2], first compound 50 µg/mL | – | 0.854 | –
[3], first compound 12.5 µg/mL | 0.729 | 0.764 | 0.77
[3], first compound 25 µg/mL | 0.641 | 0.71 | 0.78
[4], first compound 12.5 µg/mL | 0.965 | 0.984 | 0.912
[4], first compound 25 µg/mL | 0.969 | ≥ 1 | 0.969
[4], first compound 50 µg/mL | 0.996 | 0.903 | ≥ 1

Settings | Bliss interaction score
[5] | -0.0744
[6] | 0.0893
[7] | -0.124
[8] | 0.0572

O=C(O[C@@H]1Cc2c(O)cc(O)cc2O[C@@H]1c1cc(O)c(O)c(O)c1)c1cc(O)c(O)c(O)c1 [EGCG] + CN1C2=CC=CC=C2N=C3C1=CC=CC3=O [Pyocyanin]
fitness
Settings | first compound 6.25 µg/mL | first compound 12.5 µg/mL | first compound 25 µg/mL | first compound 50 µg/mL
[1], partner 1.25 µg/mL | 0.81 | 0.898 | – | –
[1], partner 2.5 µg/mL | 0.831 | 0.805 | 0.638 | –
[1], partner 5 µg/mL | 0.662 | 0.645 | 0.485 | –
[2], partner 1.25 µg/mL | – | 0.677 | 0.689 | –
[2], partner 2.5 µg/mL | – | 0.693 | 0.682 | 0.624
[2], partner 5 µg/mL | – | 0.555 | 0.56 | 0.492
[3], partner 1.25 µg/mL | – | 0.679 | 0.616 | –
[3], partner 2.5 µg/mL | – | 0.647 | 0.548 | –
[3], partner 5 µg/mL | – | 0.403 | 0.409 | 0.315
[4], partner 0.325 µg/mL | – | 0.986 | ≥ 1 | ≥ 1
[4], partner 0.65 µg/mL | – | 0.976 | 0.98 | 0.925
[4], partner 1.3 µg/mL | – | 0.638 | 0.628 | 0.75

Settings | Bliss interaction score
[5] | 0.187
[6] | -0.114
[7] | -0.0806
[8] | -0.0423

O=C(O[C@@H]1Cc2c(O)cc(O)cc2O[C@@H]1c1cc(O)c(O)c(O)c1)c1cc(O)c(O)c(O)c1 [EGCG] + CN(N=O)C(=O)N[C@@H](C=O)[C@@H](O)[C@H](O)[C@H](O)CO [Streptozotocin]
fitness
Settings | first compound 6.25 µg/mL | first compound 12.5 µg/mL | first compound 25 µg/mL | first compound 50 µg/mL
[1], partner 0.15 µg/mL | 0.913 | 0.571 | – | –
[1], partner 0.3 µg/mL | 0.856 | 0.62 | 0.449 | –
[1], partner 0.6 µg/mL | 0.915 | 0.515 | 0.391 | –
[2], partner 0.15 µg/mL | – | 0.763 | 0.702 | 0.683
[2], partner 0.3 µg/mL | – | 0.643 | 0.635 | 0.658
[2], partner 0.6 µg/mL | – | 0.597 | 0.595 | 0.499
[3], partner 0.15 µg/mL | – | 0.711 | 0.804 | 0.783
[3], partner 0.3 µg/mL | – | 0.737 | 0.477 | 0.752
[3], partner 0.6 µg/mL | – | 0.404 | 0.416 | 0.572
[4], partner 1.2 µg/mL | – | 0.911 | 0.947 | 0.919
[4], partner 2.4 µg/mL | – | 0.891 | 0.935 | 0.91
[4], partner 4.8 µg/mL | – | 0.907 | ≥ 1 | ≥ 1

Settings | Bliss interaction score
[5] | -0.0853
[6] | -0.0464
[7] | -0.0449
[8] | 0.0662
